This passage reports IC50 results from patent US20140088114A1, “FUSED BICYCLIC KINASE INHIBITORS” (OSI Pharmaceuticals ,LLC, priority 2011, published 2014).

Where two headings read alike, the source gives them in different places.

Common to all, as to assay type: cell-based
Assay [1] has as its target T1, RON (Homo sapiens, UniProt Q04912).
T1 construct: expressed in transfected cells; host or cells: HeLa
T1 sequence (Q04912 913-1400 limits assumed): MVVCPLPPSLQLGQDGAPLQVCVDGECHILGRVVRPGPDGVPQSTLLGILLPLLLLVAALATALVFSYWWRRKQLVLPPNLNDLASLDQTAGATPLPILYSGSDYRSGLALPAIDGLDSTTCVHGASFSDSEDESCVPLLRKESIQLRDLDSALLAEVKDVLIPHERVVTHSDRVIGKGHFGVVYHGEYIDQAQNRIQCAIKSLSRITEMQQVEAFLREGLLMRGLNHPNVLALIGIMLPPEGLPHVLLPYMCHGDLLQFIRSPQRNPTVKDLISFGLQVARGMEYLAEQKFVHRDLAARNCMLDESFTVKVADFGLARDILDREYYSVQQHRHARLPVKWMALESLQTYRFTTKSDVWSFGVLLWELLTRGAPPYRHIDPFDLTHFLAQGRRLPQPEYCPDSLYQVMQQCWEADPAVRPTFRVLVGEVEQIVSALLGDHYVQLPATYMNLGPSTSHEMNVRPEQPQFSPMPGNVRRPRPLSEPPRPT
The experiment in a line: sfRON cell mechanistic assay (HeLa), phosphorylated RON. How it is done:
The cellular activity of the compounds of the present invention against RON may be determined by the following procedure. HeLa cells were plated in Falcon 3072 96-well plates in growth media (DMEM, 10% FBS, 1% L-glutamine) at a density of 10000 cells/well and incubated at 37° C., 5% CO2 overnight. The following day, cells were transfected with 0.2 μg sfRON-pcDNA plasmid DNA with 0.5 μL Lipofectamine2000 per well in the presence of 50 μL OPTI-MEM, incubated at 37° C., 5% CO2 overnight. Costar 3915 96-well assay plates were coated with rabbit Anti-RON antibody at 2.0 μg/mL, sealed, and incubated overnight at 4° C. On the third day, coated plates were washed with PBS and blocked with 3% BSA. For the sfRON transfected cells, one-tenth volume of a 10× concentration of compounds was added to the wells in a 6-point dilution series. The dilution series was composed of an initial 1:5 dilution of a 10 mM DMSO stock solution of compound in DMSO, followed by a 1:10 dilution in growth media, for a final DMSO concentration on cells of 0.5%. Control wells were treated with 0.5% DMSO. The typical range of dilution was 10 μM to 3 nM. Once compound was added to the cells, plates were incubated for four hours at 37° C., 5% CO2. Plates were then washed in PBS, and lysed in triton-based lysis buffer. Lysates were transferred to the blocked capture plates. The phosphorylated RON levels were measured by incubating with a Goat polyclonal antibody against phosphorylated RON ([pYpY1238/1239]) followed by an anti-Goat antibody conjugated to HRP. Signal was measured on a Wallac Victor plate reader with luminance. The DMSO signal of the control wells was defined as 100% and the percent of inhibition of phosphorylated RON was expressed as percent of control. IC50 values were determined from the percent of control data using a standard four-parameter model.
The IC50 values of exemplary compounds of the present invention determined in a sfRON cell mechanistic assay using the HeLa cell line according to the procedures described herein in at least duplicate experiments are abbreviated as follows and are shown in Table 3: A, IC50≦0.03 μM; B, 0.03 μM<IC50≦0.1 μM; C, 0.1 μM<IC50≦1 μM; D, 1 μM<IC50≦3 μM; ND, not determined. The Example # of Table 3 corresponds to the compound example number as illustrated in the Examples section.

Assay [2] has as its target T2, Aurora B (Homo sapiens, UniProt Q96GD4).
T2 construct: HT-29 cells grown in complete growth media; endogenous in cells; host or cells: HT-29
The assay can be described thus: Aurora B cell mechanistic assay (HT-29), phospho-Histone H3 (Ser10) ELISA. The settings on record: HT-29 cell line, inhibition of phospho-Histone H3 (Ser10), at least duplicate experiments (italicized if single); read-out: Aurora B mech IC50. As for the experimental part:
The cellular activity of the compounds of the present invention against Aurora B may be determined by the following procedure. HT-29 cells grown in complete growth media (McCoy's 5A, 10% FCS, 1% L-glutamine) were plated into wells of a 96 well tissue culture plate (Falcon 3072) at a cell density of 4×10^4 cells/0.09 ml media/well. Cells were subsequently incubated overnight in a 5% CO2 humidified 37° C. incubator. The following day 10 μl of a 10× stock of test compound serially diluted in media was added to the cells and incubated for 1 h at 37° C. at which time Calyculin A (Cell Signaling #9902) was added at a concentration of 100 nM and cells incubated for an additional 30 minutes in a 5% CO2 humidified 37° C. incubator. Media was then aspirated and cells lysed using a Triton based lysis buffer. Lysates were transferred to a pre-coated anti-Histone H3 antibody coated plate supplied by Cell Signaling in their PathScan phospho-Histone H3 (Ser10) ELISA kit (#7155). After an overnight incubation with lysate the ELISA was continued following the manufacturer's instructions. Signal was measured on a Wallac Victor plate reader at 450 nm. DMSO control treated cells served as 100% signal and an Aurora B kinase inhibitor served as 100% inhibition. The percent inhibition of phospho-Histone H3 (Ser10) was expressed as % control. IC50 values were calculated from the percent control data using a standard four-parameter model.
The IC50 values of exemplary compounds of the present invention determined in a Aurora B cell mechanistic assay using the HT-29 cell line according to the procedures described herein in at least duplicate experiments are abbreviated as follows and are shown in Table 4: A, IC50≦0.03 μM; B, 0.03 μM<IC50≦0.1 μM; C, 0.1 μM<IC50≦1 μM; D, 1 μM<IC50≦3 μM; ND, not determined. If only data from single experiments are available, the abbreviations are italicized. The Example # of Table 4 corresponds to the compound example number as illustrated in the Examples section.
(ELISA stands for enzyme-linked immunosorbent assay.)

In assay [3] the test system is Karpas-299 cells. The experiment in a line: Karpas-299 cell proliferation assay (CellTiter-Glo). The settings on record: Homo sapiens, 72 h; Karpas-299 cell line (NPM-ALK), 3 days incubation, at least duplicate experiments; read-out: Prolif. IC50. How it is done: The effect of inhibitors on the proliferation of Karpas-299 cells (DSMZ no. ACC 31) was determined using the following protocol. Karpas-299 cells were plated in 96-well white tissue culture treated plates (Corning 3917) in growth medium (RPMI, 10% FCS) at a density of 5000 cells/well in a total volume of 135 μL and incubated at 37° C., 5% CO2, 95% humidity overnight. The following day, one-tenth volume of a 10× concentration of compounds was added to the wells in an 8-point dilution series. Compounds were serially diluted (1:4) in DMSO from a 10 mM stock solution prior to dilution in growth media to the 10× working concentrations (5% DMSO). Final concentration of DMSO in compound-treated wells was 0.5%. Control wells containing growth media or growth media/0.5% DMSO were included in all test plates. The typical dilution range is 10 μM to 0.1 nM. Once the compounds were added to the cells, plates were incubated for 3 days at 37° C., 5% CO2 at 95% humidity. After 72 hours, all cells and reagents were equilibrated to room temperature and 15 μL of CellTiter-Glo reagent (Promega #G7573) was added to each well. Plates were shaken on a platform for 10 minutes at room temperature prior to reading luminescence. The value of the signal of the control wells was set as 100% growth and growth inhibition was expressed as percent of control. IC50 values were determined from the percent of control data using a standard four-parameter curve fit equation.
The IC50 values of exemplary compounds of the present invention determined in a cell proliferation assay using the Karpas-299 cell line according to the procedures described herein in at least duplicate experiments are abbreviated as follows and are shown in Table 5: A, IC50≦0.03 μM; B, 0.03 μM<IC50≦0.1 μM; C, 0.1 μM<IC50≦1 μM; D, 1 μM<IC50≦3 μM; ND, not determined. The Example # of Table 5 corresponds to the compound example number as illustrated in the Examples section.
The Karpas-299 cell line has a t(2;5) chromosomal translocation and expresses the NPM-ALK fusion protein, resulting in constitutively active ALK. […] Ther. 6(12):3314-22 (2007)]. With this “ALK-driven” cell line by ALK, the cell proliferation IC50 values can thus be used as surrogate for the p-ALK cell mechanistic IC50 values.

Where [4] appears, read: Table 6: comparison X = C1-3haloalkyl vs. X = C1-3alkyl, read-out: sfRON cell mechanistic.

T2 sequence (Q96GD4 whole entry): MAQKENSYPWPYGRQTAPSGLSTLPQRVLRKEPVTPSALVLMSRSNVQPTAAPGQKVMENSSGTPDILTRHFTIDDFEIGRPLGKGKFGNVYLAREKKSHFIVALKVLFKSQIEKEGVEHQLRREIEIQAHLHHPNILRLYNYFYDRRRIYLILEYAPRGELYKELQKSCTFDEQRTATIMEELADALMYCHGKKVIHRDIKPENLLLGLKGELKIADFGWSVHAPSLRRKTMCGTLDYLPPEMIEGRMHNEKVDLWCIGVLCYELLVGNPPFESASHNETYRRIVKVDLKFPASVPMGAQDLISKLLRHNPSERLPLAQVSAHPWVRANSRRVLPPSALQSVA

On to `COc1ccc(F)c(Cl)c1[C@H](CF)c1c[nH]c2ncc(-c3cnn([C@H]4CC[C@H](O)CC4)c3)cc12` [Example 2, trans-4-(4-{3-[(1R)-1-(2-chloro-3-fluoro-6-methoxyphenyl)-2-fluoroethyl]-1H-pyrrolo[2,3-b]pyridin-5-yl}-1H-pyrazol-1-yl)cyclohexanol], for which the IC50 in assay [1] (sfRON transfected HeLa cells, four hours incubation, inhibition of phosphorylated RON, at least duplicate experiments, read-out: sfRON mech IC50) was 1 to 3 µM; in assay [2] it was 0.1 to 1 µM; in assay [3], 0.1 to 1 µM.

On to `CC(c1c(Cl)ccc(F)c1Cl)c1c[nH]c2ncc(-c3cnn(C)c3)cc12` (stereo not drawn) [reference compound], for which the IC50 in assay [1] (setting [4]) was in the range of 1 to 3 µM. Same read-out and setting: the value for `COc1ccc(F)c(Cl)c1[C@@H](C)c1c[nH]c2ncc(-c3cnn([C@H]4CC[C@H](O)CC4)c3)cc12` [reference compound] was 0.1 to 1 µM; that for `C[C@H](c1c(OC(F)F)ccc(F)c1Cl)c1c[nH]c2ncc(-c3cnn([C@H]4CC[C@H](O)CC4)c3)cc12` [reference compound] was 0.03 to 0.1 µM.
